Values of other authors, collected in PMC10817097, “Caffeic Acid Phosphanium Derivatives: Potential Selective Antitumor, Antimicrobial and Antiprotozoal Agents” (International Journal of Molecular Sciences, 2024).

How the values were obtained:
Set-up in all cases: method as in PMID 36771693
[1] = tested on: Jurkat (human leukemic T cell lymphoma); settings: standard; cited from earlier work
[2] = tested on: MCF-10A cell line (human mammary gland epithelial cells); settings: MCF-10A control cells, standard; cited from earlier work
[3] = tested on: PANC-1 (human pancreatic adenocarcinoma); settings: PANC-1, standard; cited from earlier work
[4] = tested on: MDA-MB-231 (human mammary gland adenocarcinoma); settings: MDA-MB-231, standard; cited from earlier work
[5] = tested on: HCT116 (human colorectal adenocarcinoma); settings: HCT116, standard; cited from earlier work
[6] = tested on: NIH 3T3 (murine fibroblasts); settings: NIH 3T3 control cells, standard; cited from earlier work
[7] = tested on: A2058 (human metastatic melanoma); settings: A2058, standard; cited from earlier work
[8] = tested on: MCF-7 (human breast adenocarcinoma); settings: MCF-7, standard; cited from earlier work
[9] = tested on: HeLa (human cervical adenocarcinoma); settings: standard; cited from earlier work

In the case of `N.N.[Cl][Pt][Cl]` [CisPt, cisplatin], the IC50 [1] is listed as 6.3 µM, the IC50 [2] is listed as 25.9 µM and the IC50 [3] is listed as 16.5 µM. For the same compound, the IC50 [4] was 7.1 µM, the IC50 [5] was 7.4 µM and the IC50 [6] was 40.6 µM. For the same compound, the IC50 [7] was 21.5 µM, the IC50 [8] was 29.7 µM and the IC50 [9] was 35.4 µM.
